From patent US20100323989A1, “PHARMACEUTICAL COMBINATIONS USEFUL FOR TREATING HCV” (Gilead Sciences, Inc., priority 2009, published 2010)
Values joined by “and” are separate entries in the source; they are usually repeats but may differ in a detail not shown here. Equal values may be shown once.

Assays:
[1] = Pharmacokinetic drug-drug interaction study, single dose with multiple-dose partner, healthy subjects (Example 6); format: in vivo, human; settings: for Compound 1 AUC0-last, % Geometric Least-Squares Mean Ratio (90% CI) / Compound 1 AUCinf, % Geometric Least-Squares Mean Ratio (90% CI) / Compound 1 Cmax, % Geometric Least-Squares Mean Ratio (90% CI): Compound 1 + Compound 2 / Compound 1 alone; for AUC(0-t) / AUC(0-inf) / Cmax / half-life: human, plasma; for AUC(0-t): Compound 1 AUC0-last; for AUC(0-t) / AUC(0-inf) / Cmax: Mean (% CV); for AUC(0-inf): Compound 1 AUCinf; for Cmax: Compound 1 Cmax; for half-life: Compound 1 T1/2, Median (min, max)
Procedure: In this study, healthy subjects were randomized into one of the following three treatment groups: […] Treatment Group 3 (N=20): […] Serial blood samples for analysis of plasma concentrations of Compound 2 were collected up to 72 hours post-morning dose on Days 1 and 10 to determine systemic drug exposure.

[2] = tested on: 1b Con-1 PI-Luc replicon with NS5B polymerase mutation M423T; format: cell-based, HCV genotype 1b; settings: ratio of mutant EC50 to wild type EC50, NS5B M423T
[3] = tested on: HCV genotype 1b replicon cells (Huh-luc); assay: EC50 determination in HCV genotype 1b Huh-luc replicon cells (luciferase); format: cell-based; settings: Hepatitis C virus, 72 h, 3 days, average ± standard deviation
Procedure: (§1) HCV genotype 1b replicon cells (Huh-luc) were obtained from Reblikon (Mainz, Germany). The replicon in these cells is designated I389luc-ubi-neo/NS3-3′/ET and encodes a selectable resistance marker (neomycin phosphotransferase) as well as the firefly luciferase reporter gene. Huh-luc cells were maintained in Dulbecco's Modified Eagle's Medium (DMEM; GIBCO, Carlsbad, Calif.) supplemented with 10% fetal bovine serum (FBS; Hyclone, Logan, Utah) and 0.5 mg/mL of G-418 (GIBCO). Cells were passaged twice a week and maintained at subconfluent levels.
Replicon cells were seeded in 96-well plates at a density of 5×10^3 cells per well in 100 μL of DMEM culture medium, excluding G-418. Compounds 1 and 2 were serially diluted 1:3 in 100% DMSO (Sigma). These serial dilutions were added to the cells at a 1:200 dilution to achieve a final concentration of 0.5% DMSO in a total volume of 200 μL. […] HCV replication levels in drug-treated samples were expressed as a percentage of those in untreated controls (defined as 100%), and data were fit to the logistic dose response equation y=a/(1+(x/b)c) using XLFit4 software (IDBS, Emeryville, Calif.). EC50 values were calculated from the resulting equations as described previously (Delaney, W. E., et al., Antimicrobial Agents Chemotherapy, 45(6):1705-1713 (2001)).

[4] = Multiple-dose pharmacokinetic interaction study in healthy subjects (Example 5); format: in vivo, human
[5] = tested on: HCV genotype 1b replicon cells (Huh-luc); assay: Combination study in Huh-luc replicon cells analysed with MacSynergy II; format: cell-based; settings: Compound 1 in combination with Compound 2, MacSynergy II
Procedure: as §1
For each individual drug, the EC50 value was selected as the midpoint for the concentration range tested. Cells were incubated for three days and analyzed for luciferase expression as indicated above. For the combination study, two independent experiments were performed in triplicate.
The calculated volumes of surface deviations are expressed in nM2%. Per Prichard and Shipman, combination effects are defined as:
Highly synergistic if volumes >100 nM^2.
Slightly synergistic if volumes are >50 and ≦100 nM^2.
Additive if volumes are >−50 nM^2 and ≦50 nM^2.
Slightly antagonistic if volumes are >−100 nM^2 and ≦−50 nM^2.
Antagonistic if volumes are ≦−100 nM^2.

[6] = tested on: 1b PI-luc replicon with NS3 protease mutation D168E; format: cell-based, HCV genotype 1b; settings: ratio of mutant EC50 to wild type EC50, NS3 D168E
[7] = tested on: 1b PI-luc replicon with NS3 protease mutation R155K; format: cell-based, HCV genotype 1b; settings: ratio of mutant EC50 to wild type EC50, NS3 R155K
[8] = tested on: HCV 1b-con replicon cells; assay: Long-term (20 days, 6 passages) treatment of HCV replicon cells, HCV RNA by Real-Time RT PCR; format: cell-based, HCV genotype 1b; settings: from baseline, compounds at 10 times their EC50, mean ± SD
Procedure: as §1
Both compounds were used at concentrations 10 times over their respective EC50 values. In brief, replicon cells (10^6 cells) were plated in a T75 flask in 15 mL of supplemented DMEM without G418. […] At each passage, cells were trypsinized, 10^6 cells were frozen in […] of RLT RNA lysis buffer (QIAGEN), and an additional 10^6 cells were seeded into another T75 flask with fresh medium and inhibitors. At the end of the assay, RNA was extracted from frozen replicon cells saved at the time of passage using QIAGEN RNeasy spin kit and was analyzed in a Real-Time RT PCR assay (Applied Biosystems).

[9] = tested on: 1b PI-luc replicon with NS3 protease mutation V36M; format: cell-based, HCV genotype 1b; settings: ratio of mutant EC50 to wild type EC50, NS3 V36M
[10] = tested on: 1b Con-1 PI-Luc replicon with NS5B polymerase mutation M414T; format: cell-based, HCV genotype 1b; settings: ratio of mutant EC50 to wild type EC50, NS5B M414T
[11] = tested on: 1b PI-luc replicon with NS3 protease mutation T54A; format: cell-based, HCV genotype 1b; settings: ratio of mutant EC50 to wild type EC50, NS3 T54A
[12] = tested on: 1b PI-luc replicon with NS3 protease mutation D168V; format: cell-based, HCV genotype 1b; settings: ratio of mutant EC50 to wild type EC50, NS3 D168V
[13] = tested on: 1b PI-luc replicon with NS3 protease mutation A156T; format: cell-based, HCV genotype 1b; settings: ratio of mutant EC50 to wild type EC50, NS3 A156T
[14] = Group 1, Compound 1 20 mg with Compound 2 150 mg BID vs Compound 1 20 mg alone
[15] = Group 2, Compound 1 40 mg with Compound 2 150 mg BID vs Compound 1 40 mg alone
[16] = 20 mg, Group 1, human, single-dose Compound 1 20 mg alone
[17] = 40 mg, Group 2, human, single-dose Compound 1 40 mg alone
[18] = Group 1, human, single-dose Compound 1 20 mg + multiple-dose Compound 2 150 mg BID
[19] = Group 2, human, single-dose Compound 1 40 mg + multiple-dose Compound 2 150 mg BID
[20] = Compound 1 (40 mg BID) + Compound 2 (75 mg BID) / Compound 1 alone
[21] = coadministration of Compound 2 (75 mg BID) with Compound 1 (40 mg BID) vs Compound 1 alone

Fc1ccccc1-c1nc2ccn(Cc3ccc(-c4ccc(C(F)(F)F)cc4C(F)(F)F)nn3)cc-2n1 [Compound 1, 5-({6-[2,4-bis(trifluoromethyl)phenyl]pyridazin-3-yl}methyl)-2-(2-fluorophenyl)-5H-imidazo[4,5-c]pyridine]
Compound 1 AUC0-last, % Geometric Least-Squares Mean Ratio (90% CI) ([1]; Group 1 (Compound 1 20 mg)): 250.5 (217.8, 288.0) % | Compound 1 AUCinf, % Geometric Least-Squares Mean Ratio (90% CI) ([1]; Group 1 (Compound 1 20 mg)): 321.1 (262.8, 392.2) % | Compound 1 Cmax, % Geometric Least-Squares Mean Ratio (90% CI) ([1]; Group 1 (Compound 1 20 mg)): 123.1 (111.6, 135.7) % | increase in AUC0-last of Compound 1 [1, 14]: 151% | increase in AUCinf of Compound 1 [1, 14]: 221% | increase in Cmax of Compound 1 [1, 14]: 23% | Compound 1 AUC0-last, % Geometric Least-Squares Mean Ratio (90% CI) ([1]; Group 2 (Compound 1 40 mg)): 253.0 (229.3, 279.1) % | Compound 1 AUCinf, % Geometric Least-Squares Mean Ratio (90% CI) ([1]; Group 2 (Compound 1 40 mg)): 350.4 (300.2, 409.1) % | Compound 1 Cmax, % Geometric Least-Squares Mean Ratio (90% CI) ([1]; Group 2 (Compound 1 40 mg)): 136.8 (122.7, 152.6) % | increase in AUC0-last of Compound 1 [1, 15]: 153% | increase in AUCinf of Compound 1 [1, 15]: 250% | increase in Cmax of Compound 1 [1, 15]: 37% | increase in median Compound 1 terminal phase elimination half-life ([1]; both groups (20 and 40 mg), with Compound 2 150 mg BID vs Compound 1 alone): approximately 2 fold | AUC(0-t) [1, 16]: 12800 ng·h/mL | AUC(0-inf) [1, 16]: 13400 ng·h/mL | Cmax [1, 16]: 940 ng/mL | half-life [1, 16]: 16.6 h | AUC(0-t) [1, 17]: 34100 ng·h/mL | AUC(0-inf) [1, 17]: 35500 ng·h/mL | Cmax [1, 17]: 1980 ng/mL | half-life [1, 17]: 19.2 h | AUC(0-t) [1, 18]: 32600 ng·h/mL | AUC(0-t) [1, 19]: 87500 ng·h/mL | AUC(0-inf) [1, 18]: 49500 ng·h/mL | AUC(0-inf) [1, 19]: 137000 ng·h/mL | Cmax [1, 18]: 1140 ng/mL | Cmax [1, 19]: 2730 ng/mL | half-life [1, 18]: 35.8 h | half-life [1, 19]: 39.3 h | Fold Resistance M423T [2]: 0.8 fold | EC50 [3]: 3 ± 2 nM | Compound 1 AUCtau, % Geometric Least Square Mean Ratio (90% CI) [4, 20]: 206.4 (185.1, 230.0) % | Compound 1 Cmax, % Geometric Least Square Mean Ratio (90% CI) [4, 20]: 185.2 (167.3, 205.0) % | Compound 1 Ctau, % Geometric Least Square Mean Ratio (90% CI) [4, 20]: 251.2 (219.5, 287.5) % | increase in AUCtau of Compound 1 [4, 21]: 106% | increase in Cmax of Compound 1 [4, 21]: 85% | increase in Ctau of Compound 1 [4, 21]: 151% | AUC ([4]; human, plasma, po, 40 mg): 43400 ng·h/mL | Cmax ([4]; human, plasma, po, 40 mg): 5040 ng/mL | concentration at 12 h ([4]; human, plasma, po, 40 mg): 2570 ng/mL | Interaction [5]: Additive (Additive if volumes are >−50 nM^2 and ≦50 nM^2.) | Antagonism Volume ([5]; mean ± SD): 0.07 ± 0.07 nM^2 | Synergy Volume ([5]; mean ± SD): 13.5 ± 10.5 nM^2 | Fold Resistance D168E [6]: 1.0 fold | Fold Resistance R155K [7]: 0.9 fold | HCV RNA Change in Log10, Passage 5 [8]: −2.1 ± 0.5 Log10 | HCV RNA Change in Log10, Passage 6 [8]: −2.3 Log10 and −2.4 ± 0.2 Log10 | Fold Resistance V36M [9]: 1.1 fold | Fold Resistance M414T [10]: 0.7 fold | Fold Resistance T54A [11]: 1.0 fold | Fold Resistance D168V [12]: 1.2 fold | Fold Resistance A156T [13]: 0.6 fold
